Assay results reported in publication PMC7734590, “Identification of a Selective RelA Inhibitor Based on DSE-FRET Screening Methods” (International Journal of Molecular Sciences, 2020).
Where two headings read alike, the source gives them in different places.

Columns and labels:
RelA [1] = target: T1, RelA (Homo sapiens, UniProt Q04206); experiment: DSE-FRET RelA–DNA binding inhibition; format: biochemical
Method: (§2) Plate-based (384 scale) DNA-binding experiments were carried out with 0.1 µL of 2 mM or 1 mg/mL compound, 2 µL of 80 nM NF-D1 (consisting of NF-01F and NF-14D), 1 µL of 20 ng/µL poly dI-dC, and 6.9 µL of 3.2 pmol protein in binding buffer (10 mM 4-(2-hydroxyethyl)-1-piperazineethanesulfonic acid (HEPES)–NaOH pH 7.9, 50 mM KCl, 0.1 mM ethylenediaminetetraacetic acid (EDTA), 2.5 mM dithiothreitol (DTT), 10% glycerol, and 0.05% Nonidet P40). The plates were incubated for 30 min at room temperature, after which 10 µL of NF-D2 (consisting of NF-02 and NF-13) was added. The plates were centrifuged at 1000 rpm for 30 s, followed by shaking for 30 s using a plate shaker (Biotec). Fluorescence was measured at 528 nm, after excitation at 485 nm, using a multiplate reader (Biotec) over a period of 60 min.

cRel = target: T2, cRel (Homo sapiens, UniProt Q04864); experiment: DSE-FRET cRel–DNA binding inhibition; format: biochemical
T2 construct: GST; made in house
T2 sequence (Q04864 1-619): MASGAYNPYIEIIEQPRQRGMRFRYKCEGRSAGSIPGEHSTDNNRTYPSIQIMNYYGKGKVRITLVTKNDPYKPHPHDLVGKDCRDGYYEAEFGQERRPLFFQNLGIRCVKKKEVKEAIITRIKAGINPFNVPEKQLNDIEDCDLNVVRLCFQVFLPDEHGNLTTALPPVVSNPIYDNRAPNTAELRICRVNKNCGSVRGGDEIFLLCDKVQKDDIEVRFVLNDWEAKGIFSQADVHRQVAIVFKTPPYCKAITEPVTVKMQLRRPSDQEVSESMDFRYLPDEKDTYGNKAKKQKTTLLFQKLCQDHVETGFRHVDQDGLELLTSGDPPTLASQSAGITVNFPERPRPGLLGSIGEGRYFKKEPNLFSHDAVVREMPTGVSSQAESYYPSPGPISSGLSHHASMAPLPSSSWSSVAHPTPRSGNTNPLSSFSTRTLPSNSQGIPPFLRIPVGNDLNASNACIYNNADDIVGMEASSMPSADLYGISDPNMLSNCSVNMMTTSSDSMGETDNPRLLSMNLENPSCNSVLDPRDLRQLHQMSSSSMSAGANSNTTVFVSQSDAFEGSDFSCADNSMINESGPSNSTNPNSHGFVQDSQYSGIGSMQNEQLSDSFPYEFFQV
Method: as §2

p50 = target: T3, p50 (Homo sapiens, UniProt P19838); experiment: DSE-FRET p50–DNA binding inhibition; format: biochemical
T3 sequence (P19838 1-433 limits assumed): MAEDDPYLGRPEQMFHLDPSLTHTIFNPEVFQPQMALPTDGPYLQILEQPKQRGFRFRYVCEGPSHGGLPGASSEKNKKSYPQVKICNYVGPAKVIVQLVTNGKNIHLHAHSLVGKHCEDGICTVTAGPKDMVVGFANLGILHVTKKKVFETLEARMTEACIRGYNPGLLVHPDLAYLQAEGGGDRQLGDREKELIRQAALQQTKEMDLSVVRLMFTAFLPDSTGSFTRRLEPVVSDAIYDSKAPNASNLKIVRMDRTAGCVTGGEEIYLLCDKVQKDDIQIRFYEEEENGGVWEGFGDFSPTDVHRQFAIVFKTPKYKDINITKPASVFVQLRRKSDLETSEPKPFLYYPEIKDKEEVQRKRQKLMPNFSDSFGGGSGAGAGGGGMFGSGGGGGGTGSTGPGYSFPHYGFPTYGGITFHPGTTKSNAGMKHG
Method: as §2

GST–RelA = GST–RelA (Homo sapiens, UniProt Q04206); experiment: SPR analysis with immobilized GST–RelA; format: binding; details: for Rmax / Kd: GST–RelA; for Kd: read-out: dissociation constant (Kd)
Chain of GST–RelA (Q04206 19-306 limits assumed): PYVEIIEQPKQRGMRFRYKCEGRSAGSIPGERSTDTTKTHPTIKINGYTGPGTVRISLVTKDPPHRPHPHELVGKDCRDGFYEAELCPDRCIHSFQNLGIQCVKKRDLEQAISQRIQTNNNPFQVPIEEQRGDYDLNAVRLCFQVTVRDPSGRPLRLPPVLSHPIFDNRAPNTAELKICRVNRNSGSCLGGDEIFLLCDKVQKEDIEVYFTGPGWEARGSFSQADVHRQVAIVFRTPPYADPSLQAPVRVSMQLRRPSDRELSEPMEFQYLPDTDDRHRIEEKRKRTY
Method: (§1) SPR biosensor measurements were performed at 25 °C using a Biacore T100 instrument (GE Healthcare, Chicago, IL, USA). […] Next, 4 µg/mL GST–RelA or 5 µg/mL GST (GE Healthcare) was flowed through the channel (5 μL/min, for 180 s) and captured on the sensor chip. […] Dissociation constants were computed by fitting to a 1:1 interaction model using Biacore (GE Healthcare). Stoichiometry was calculated based on the theoretical Rmax value, where the theoretical Rmax = MWA/MWL RL SM (A, analyte; L, ligand; RL, immobilization level of ligand RU; SM, stoichiometry).

GST–p52 = target: T4, GST–p52 (Homo sapiens, UniProt Q00653); experiment: SPR analysis with immobilized GST–p52; format: binding
T4 sequence (Q00653 1-454 limits assumed): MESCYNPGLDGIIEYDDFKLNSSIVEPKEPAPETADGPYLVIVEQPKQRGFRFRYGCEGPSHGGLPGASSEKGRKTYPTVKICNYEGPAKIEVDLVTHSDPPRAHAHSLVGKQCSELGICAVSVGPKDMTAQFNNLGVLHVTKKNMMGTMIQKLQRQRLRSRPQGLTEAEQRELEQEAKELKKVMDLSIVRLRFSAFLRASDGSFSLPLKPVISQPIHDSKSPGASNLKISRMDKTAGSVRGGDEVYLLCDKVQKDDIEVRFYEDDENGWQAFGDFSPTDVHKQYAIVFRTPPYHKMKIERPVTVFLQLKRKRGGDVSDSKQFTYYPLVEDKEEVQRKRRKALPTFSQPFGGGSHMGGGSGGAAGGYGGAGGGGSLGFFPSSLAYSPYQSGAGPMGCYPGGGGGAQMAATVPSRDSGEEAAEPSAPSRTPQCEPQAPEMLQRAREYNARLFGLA
Method: as §1

RelA [2] = target: T1, RelA; experiment: EMSA with recombinant RelA; format: biochemical
p52 = target: T5, p52 (Homo sapiens, UniProt Q00653); experiment: EMSA with recombinant p52; format: biochemical
T5 sequence (Q00653 1-454 limits assumed): T4 sequence (Q00653 1-454 limits assumed)

PK8 cells = experiment: Cell viability assay (PrestoBlue), TNF-α-treated PK8 cells; format: cell-based, human; details: TNF-α 50 ng/mL, 48 h
Method: The human pancreatic carcinoma cell line PK8 was grown in Roswell Park Memorial Institute 1640 Medium (RPMI) (SIGMA; R8758) supplemented with 10% fetal bovine serum (FBS) at 37 °C with 5% CO2.
Cell viability was measured using the PrestoBlue assay according to the standard protocol (Thermo Fisher Scientific, Waltham, MA, USA: A13261). PK8 cells were cultivated on 96-well plates. After a 48 h treatment with TNF-α (50 ng/mL) in the presence or absence of A55, the culture medium was replaced with fresh medium containing 10% PrestoBlue and incubated for an additional 1 h at 37 °C and 5% CO2. Fluorescence intensity was then measured using a multiplate reader (EnSpire, PerkinElmer, Waltham, MA, USA).

T1 sequence (Q04206 19-306 limits assumed): as the sequence (Q04206 19-306 limits assumed) above

In the case of `Cc1cc(O)n(CC(=O)O)c(=O)c1C(N)=O` [A55, 2-(3-carbamoyl-6-hydroxy-4-methyl-2-oxopyridin-1(2H)-yl) acetic acid], the “Hit Judgement of: RelA” value (RelA [1]; 2nd screening at 96 well plate, 1 = judged hit) is reported as 1, the “dose–response of RelA–DNA binding inhibition” value (RelA [1]; 2–10 µM) is reported as “inhibited RelA–DNA binding in a concentration-dependent manner” and the “ligand efficiency (LE)” value (RelA [1]; 16 heavy atoms) is reported as 0.44. The “RelA–DNA binding inhibition” value (RelA [1]; 96-well plate, in silico selected compounds) was “over 50%”, the “RelA–DNA binding inhibition at 50 µM” value (RelA [1]; 96-well plates, 50 µM) was “inhibited only RelA–DNA binding” and the inhibition at 50 µM (RelA [1]; 96 well plate, 50 µM, 120 min-0 min, read-out: Kinetic assay @ 50 µM RelA Inhibition % ΔRFU(120 min-0 min)) was 63%. For the same molecule, the IC50 (RelA [1]; DSE-FRET) was 9.31 µM, the IC50 (cRel) was > 100 µM and the IC50 (p50) was > 100 µM. It also gave an Rmax (GST–RelA; 0.625–20 µM A55) of 7.3 RU, a Kd (GST–RelA; 0.625–20 µM A55) of 2.87 µM and an Rmax (GST–RelA; 3.125–100 µM A55) of 4.7 RU. The Kd (GST–RelA; 3.125–100 µM A55) was 13 µM, the Rmax GST-RelA (GST–RelA; Run 1, 100 uM - […], theoretical Rmax 4.5) was 4.7 RU and the Rmax GST-RelA (GST–RelA; Run 2, 20 uM - […], theoretical Rmax 5.0) was 7.3 RU. For the same molecule, the Kd (GST–p52) was 1.27 µM, the Rmax (GST–p52; GST–p52, 3.125–100 µM A55) was 11.4 RU and the Rmax GST-p52 (GST–p52; Run 1, 100 uM - […], theoretical Rmax 3.4) was 11.4 RU. For the same molecule, the “EMSA inhibition of RelA–DNA binding” value (RelA [2]) was “selectively inhibited the RelA–DNA binding”, the “EMSA inhibition of p52–DNA binding” value (p52) was “selectively inhibited the RelA–DNA binding” and the “cell proliferation / growth inhibition” value (PK8 cells) was “enhanced the growth inhibition of TNF-α-treated PK8 cells in a dose-dependent manner”.
